# Test results as given in patent publication US7541032B2, “Antigen uptake receptor for Candida albicans on dendritic cells” (priority 2002, dated 2009).
# B1: ICAM-3-Fc (Fc fusion, UniProt P32942 30-485, looked up)
# chain: QEFLLRVEPQNPVLSAGGSLFVNCSTDCPSSEKIALETSLSKELVASGMGWAAFNLSNVTGNSRILCSVYCNGSQITGSSNITVYRLPERVELAPLPPWQPVGQNFTLRCQVEDGSPRTSLTVVLLRWEEELSRQPAVEEPAEVTATVLASRDDHGAPFSCRTELDMQPQGLGLFVNTSAPRQLRTFVLPVTPPRLVAPRFLEVETSWPVDCTLDGLFPASEAQVYLALGDQMLNATVMNHGDTLTATATATARADQEGAREIVCNVTLGGERREARENLTVFSFLGPIVNLSEPTAHEGSTVTVSCMAGARVQVTLDGVPAAAPGQPAQLQLNATESDDGRSFFCSATLEVDGEFLHRNSSVQLRVLYGPKIDRATCPQHLKWKDKTRHVLQCQARGNPYPELRCLKEGSSREVPVGIPFFVNVTHNGTYQCQASSSRGKYTLVVVMDIEAGSSH
# notes: Coated on carboxylate-modified TransFluorSpheres; also called ICAM-3-Fc coated beads; ICAM-3 fluorescent beads; not shown: Fc part
# Assays:
# [1] = system: immature dendritic cells (imDC); assay: Binding of C. albicans to immature monocyte-derived dendritic cells in the presence of blocking agents, flow cytometry; type: cell-based, human; conditions: for Inhibition of imDC/Candida binding (FIG. 5): panel of possible inhibitors, buffer TSA as control; for Inhibition of binding of Candida to imDC at ratios 1:2, 1:5 and 1:10 (FIG. 3D): imDC:C. albicans 1:2, 1:5, 1:10
# Method: (§1) Immature dendritic cells (imDC) were generated from human peripheral blood monocytes as described previously (Vissers et al., 2001). Briefly, monocytes were isolated by adherence to plastic and cultured in the presence of IL-4 (500 U/mL) and GM-CSF (800 U/mL) for 6-7 days. K562 transfectants either expressing DC-SIGN or ALCAM were generated by transfection of K562 cells with 10 μg of plasmid by electroporation as described previously (Geijtenbeek et al., 2000b; Nelissen et al., 2000). Positive cells were sorted several times to obtain stable transfectants with similar expression levels of DC-SIGN.
# (§2) Labeling of Candida cells was performed as follows: viable or heat killed (60 minutes at 56° C. or 30 minutes at 100° C.) yeast cells were resuspended to 2×10^8/mL in 0.1 mg/mL FITC in 0.05 M carbonate-bicarbonate buffer (pH 9.5). After incubation for 15 minutes at room temperature in the dark, FITC-labeled Candida cells were washed twice in PBS containing 1% BSA (PBA buffer) and analyzed by flow cytometry.
# (§3) DC or K562 transfected cells were stained with anti-CD45-APC prior to exposure to FITC labeled live or heat inactivated Candida. DC or K562 cells expressing DC-SIGN or ALCAM (control) were or were not preincubated for 10 minutes at room temperature with mannan (300 μg/mL), mannose (100 mM), facose (100 mM), EGTA (5 mM), or a mixture of AZN-D1 and AZN-D3 (20 μg/mL), in 20 mM Tris pH 8.0, containing 150 mM NaCl, 1 mM CaCl2, 2 mM MgCl2, and 1% BSA (TSA buffer) or, when EGTA was used, in PBS. Subsequently, FITC labeled Candida were resuspended to the appropriate concentrations either in TSA or PBS and added in various cell/C. albicans ratios. After incubation, cell-Candida conjugates were analyzed by flow cytometry, and the relative difference in mean fluorescence intensity of the double labeled events compared with that of control cells was calculated. Cells were labeled with anti-CD45APC to discriminate cells binding FITC-labeled yeast particles from yeast aggregates.
# In an attempt to establish the contribution of both the mannose receptor and DC-SIGN, immature DC were incubated with specific inhibitors before interacting with C. albicans. Immature monocyte derived dendritic cells (50×10^3), which were CD45APC labeled, were incubated with heat-inactivated Candida (500×10^3) in the absence or presence of AZN-D1 and AZN-D3, anti-DC-SIGN mAb (20 μg/mL each), mannose (100 mM), and EGTA (5 mM).
# DC-SIGN [2] = target: T1, DC-SIGN (Homo sapiens, UniProt Q9NNX6); assay: Binding of FITC-labeled C. albicans to K562 transfectants expressing DC-SIGN (K-SIGN), flow cytometry; type: cell-based; conditions: for Inhibition of binding of C. albicans to K562 cells transfected with wild-type DC-SIGN (FIG. 1F): K562 wild-type DC-SIGN transfectants
# T1 construct: expressed in transfected cells
# T1 sequence (Q9NNX6 1-404): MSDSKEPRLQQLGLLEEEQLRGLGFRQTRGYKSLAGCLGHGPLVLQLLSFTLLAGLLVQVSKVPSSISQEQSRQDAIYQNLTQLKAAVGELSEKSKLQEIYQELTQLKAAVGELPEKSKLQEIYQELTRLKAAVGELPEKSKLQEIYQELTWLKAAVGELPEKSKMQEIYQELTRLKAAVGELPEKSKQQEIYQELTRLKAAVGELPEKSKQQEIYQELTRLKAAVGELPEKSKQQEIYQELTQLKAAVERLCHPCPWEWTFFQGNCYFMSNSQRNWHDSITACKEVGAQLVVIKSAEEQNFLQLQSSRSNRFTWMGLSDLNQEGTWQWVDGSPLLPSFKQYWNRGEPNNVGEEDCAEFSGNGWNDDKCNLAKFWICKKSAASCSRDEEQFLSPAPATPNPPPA
# Method: as §1, §2, §3
# The erythroleukemic cell line K562 transfectants stably expressing DC-SIGN (K-SIGN) (Geijtenbeek et al., 2000a) were used to investigate the potential of C. albicans to bind DC-SIGN in the absence of any other known C. albicans, receptors. Binding to ICAM-3 fluorescent beads was used as a positive control for DC-SIGN function. […] The monoclonal antibodies AZN-D1 and AZN-L50 were used to detect DC-SIGN and ALCAM, respectively. The K562 transfectants stably express DC-SIGN and ALCAM, (FIGS. 1A-1 through 1A-3) with expression levels similar to that observed previously (Geijtenbeek et al., 2000a; Nelissen et al., 2000).
# Transfectant cells were labeled with CD45APC to discriminate cells binding FITC labeled yeast from yeast aggregates. […]
# DC-SIGN [3] = target: T1, DC-SIGN; assay: Binding of conidiae and hyphae of other Candida strains/species and Aspergillus fumigatus to K-SIGN cells; type: cell-based
# Method: as §3
# Further studies were performed as above but using other strains or species of yeast and also comparing binding of the conidiae versus binding of the hyphal form of the organism. […] These are clinical strains isolated from patients. It is seen that the conidiae or single-celled form of the yeast bind to DC-SIGN better than do the hyphae. […]
# immature DC = assay: Phagocytosis of FITC-labeled Candida by immature DC, confocal microscopy; type: cell-based, human; conditions: 60 minutes at 37° C.
# Method: Immature DC (5×10^5) were incubated with unopsonized live FITC-labeled Candida cells (2.5×10^6) in a total volume of 500 μL at 37° C. in a water bath with orbital shaking at 150 rpm for various periods of time. At the end of the incubation period, the DC binding Candida are separated from unbound Candida by a Ficoll gradient.
# The samples were then adhered on poly-L-lysine coated glass coverslips, fixed in 1% paraformaldehyde in PBS for 15 minutes at room temperature, and permeabilized in cold methanol for 5 minutes on ice. After a blocking step in PBS/3% BSA for 60 minutes at room temperature, cells were labeled with mAb (10 μg/mL in PBS/3% BSA) for 60 minutes at room temperature and subsequently incubated with Cy5-conjugated Goat-anti-Mouse F(ab′)2 fragments for 30 minutes at room temperature. Finally, the anti-bleach reagent Mowiol was added, and samples were analyzed using a MRC1024 confocal microscope (Bio-Rad).
# It was recently shown that DC-SIGN is an antigen uptake receptor, facilitating phagocytosis within minutes (Engering et al., 2002). In order to determine whether DC-SIGN contributes also to the internalization of C. albicans by immature DC, experiments were performed allowing DC to interact with FITC-labeled Candida for 60 minutes at 37° C. to allow phagocytosis. […]
# [4] = target: T2, Activated Leukocyte Cell Adhesion Molecule ALCAM (UniProt Q13740 28-583, limits assumed); assay: fluorescent beads adhesion assay, flow cytometry, K562 transfectants
# T2 construct: whole, on cells; also called K-ALCAM (K562 cells transfected with ALCAM)
# T2 sequence (looked up): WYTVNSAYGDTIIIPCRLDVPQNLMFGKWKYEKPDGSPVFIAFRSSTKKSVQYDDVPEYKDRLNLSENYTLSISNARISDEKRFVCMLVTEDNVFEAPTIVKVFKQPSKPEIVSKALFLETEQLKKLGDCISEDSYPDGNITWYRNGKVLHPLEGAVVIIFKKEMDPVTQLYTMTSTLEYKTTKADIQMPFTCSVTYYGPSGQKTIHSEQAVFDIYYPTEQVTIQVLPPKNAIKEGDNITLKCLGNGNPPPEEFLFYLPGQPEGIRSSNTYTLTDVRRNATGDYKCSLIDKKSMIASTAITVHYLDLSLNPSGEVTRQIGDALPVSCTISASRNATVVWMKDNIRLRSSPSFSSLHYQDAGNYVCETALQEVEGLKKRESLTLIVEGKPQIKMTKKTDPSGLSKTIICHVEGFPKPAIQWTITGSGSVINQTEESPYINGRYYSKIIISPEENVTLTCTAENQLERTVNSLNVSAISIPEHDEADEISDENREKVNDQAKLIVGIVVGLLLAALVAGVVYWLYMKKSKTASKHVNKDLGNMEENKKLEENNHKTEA
# Method: In inhibition studies, the bead adhesion assay was performed in the presence of 0.3 mg/mL mannan, 5 mM EGTA, or 20 μg/mL antibodies against DC-SIGN or ALCAM.
# The erythroleukemic cell line K562 transfectants stably expressing DC-SIGN (K-SIGN) (Geijtenbeek et al., 2000a) were used to investigate the potential of *C. albicans* to bind DC-SIGN in the absence of any other known *C. albicans*, receptors.
molecule,measurement,setting,value
laminarin,Blocking of C. albicans binding on immature monocyte derived DC (β2-integrin / Dectin-1 interference),[1],did not show any block
same,Inhibition of imDC/Candida binding (FIG. 5),[1],only minor effects
"C[C@H](O)[C@@H](O)[C@@H](O)[C@H](O)C=O [fucose, L-fucose]","Inhibition of binding of Candida to imDC at ratios 1:2, 1:5 and 1:10 (FIG. 3D)",[1],greater inhibitory effects
same,Inhibition of imDC/Candida binding (FIG. 5),[1],inhibited binding to a large degree
same,Inhibition of binding of C. albicans to K562 cells transfected with wild-type DC-SIGN (FIG. 1F),DC-SIGN [2],some inhibition
O=C(O)CN(CCN(CC(=O)O)CC(=O)O)CC(=O)O [EDTA],Inhibition of binding of various Candida species and Aspergillus fumigatus to K-SIGN cells (FIGS. 8A-F),"DC-SIGN [3]; conidiae and hyphae, all cases except possibly C. tropicalis and C. parapsilosis (very low binding)",inhibited
Mannan,"Inhibition of binding of Candida to imDC at ratios 1:2, 1:5 and 1:10 (FIG. 3D)",[1],did not block the binding
same,Inhibition of imDC/Candida binding (FIG. 5),[1],only minor effects
"β-1,2-oligomannoside",Inhibition of imDC/Candida binding (FIG. 5),[1],greatly inhibited binding
O=C(O)CN(CCOCCOCCN(CC(=O)O)CC(=O)O)CC(=O)O [EGTA],"Blocking of binding of C. albicans to immature DC, in words (FIG. 3B)","[1]; EGTA 5 mM, heat-inactivated Candida",most effective blocking agent
same,"Inhibition of binding of Candida to imDC at ratios 1:2, 1:5 and 1:10 (FIG. 3D)",[1],largely eliminated binding
same,Inhibition of imDC/Candida binding (FIG. 5),[1],inhibited binding to a large degree
same,Inhibition of binding of C. albicans by K-SIGN (FIG. 1C),"DC-SIGN [2]; AZN-D1 20 μg/mL, EGTA 5 mM",abrogates binding
same,Inhibition of binding of C. albicans to K562 cells transfected with wild-type DC-SIGN (FIG. 1F),DC-SIGN [2],prevented the binding
same,Inhibition of binding of live and heat-killed (56° C. or 100° C.) yeast forms of C. albicans by DC-SIGN (FIG. 2),"DC-SIGN [2]; K-SIGN, live and heat-inactivated yeast",inhibited
same,Inhibition of binding of conidiae and hyphae to K-SIGN cells (FIG. 6),"DC-SIGN [3]; C. albicans strains V13-12, V15-31, V18-17, C. dubliniensis strains V18-13, 4247, 3588",inhibited
same,Blocking of phagocytosis of Candida by immature DC,immature DC,almost completely blocked phagocytosis
B1,binding result,[4],no binding
